Source: US9510598B2, “Nitrogen-containing heterocyclic compounds for plant disease control” (BAYER CROPSCIENCE AG, priority 2012, dated 2016)
Like-named read-outs stand apart in the source and are kept apart here.

Legend:
[1] = tested on: Uromyces appendiculatus; assay: In vivo preventive test on Uromyces appendiculatus (bean rust); settings: 500 ppm; bean plants sprayed 24 hours before contamination; grading 10 days after contamination vs control plants
Procedure: Bean plants (“Saxa” variety), sown in starter cups on a 50/50 peat soil-pozzolana substrate and grown at 24° C., are treated at the 2-leaf stage (9 cm height) by spraying with the active ingredient prepared as described above. Plants, used as controls, are treated with the mixture of acetone/tween/DMSO/water not containing the active material. After 24 hours, the plants are contaminated by spraying the leaves with an aqueous suspension of Uromyces appendiculatus spores (150 000 spores per ml).

[2] = tested on: Septoria tritici; assay: In vivo preventive test on Septoria tritici (leaf spot on wheat); settings: 500 ppm; wheat plants sprayed 24 hours before contamination; grading 21 to 28 days after contamination vs control plants
Outline: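 Scipion wheat at 1-leaf stage sprayed with compound, controls receiving acetone/tween/DMSO/water vehicle; 24 h later leaves inoculated with Septoria tritici spores (500 000 spores per ml). Efficacy (%) graded versus control plants 21 to 28 days after contamination.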

[3] = tested on: Botrytis cinerea; assay: In vivo preventive test on Botrytis cinerea (grey mould); settings: 500 ppm; gherkin plants sprayed 24 hours before contamination; grading 4-5 days after contamination vs control plants
Outline: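 Gherkin plants ("Vert petit de Paris") sprayed with compound at Z11 cotyledon stage, then inoculated 24 h later with B. cinerea spores (50 000/ml) in PDB/fructose/NH4NO3/KH2PO4 nutrient solution. Incubated at 17 °C, 80% RH; % efficacy versus solvent-treated controls graded 4–5 days after contamination.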

[4] = tested on: Puccinia recondita; assay: In vivo preventive test on Puccinia recondita (brown rust on wheat); settings: 500 ppm; wheat plants sprayed 24 hours before contamination; grading 10 days after contamination vs control plants
Procedure: Wheat plants (“Scipion” variety), sown in starter cups on a 50/50 peat soil-pozzolana substrate and grown at 22° C. (12 h)/20° C. (12 h), are treated at the 1-leaf stage (10 cm height) by spraying with the active ingredient prepared as described above. Plants, used as controls, are treated with the mixture of acetone/tween/DMSO/water not containing the active material. After 24 hours, the plants are contaminated by spraying the leaves with an aqueous suspension of Puccinia recondita spores (100 000 spores per ml).

[5] = format: physicochemical
[6] = tested on: Sphaerotheca fuliginea; assay: In vivo preventive test on Sphaerotheca fuliginea (powdery mildew on cucurbits); settings: 500 ppm; gherkin plants sprayed 24 hours before contamination; grading 12 days after contamination vs control plants
Outline: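 Preventive spray of gherkin plants at Z11 cotyledon stage, grown at 24° C; inoculation 24 hours later with Sphaerotheca fuliginea spores (100 000 spores per ml). Efficacy graded 12 days post-inoculation as % versus solvent-treated control plants.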

[7] = tested on: Phytophthora infestans; format: in vivo; settings: 500 ppm; tomato plants sprayed 24 hours before contamination; grading 5 days after contamination vs control plants
[8] = tested on: Pyrenophora teres; assay: In vivo preventive test on Pyrenophora teres (net blotch on barley); settings: 500 ppm; barley plants sprayed 24 hours before contamination; grading 12 days after contamination vs control plants
Procedure: Barley plants (“Plaisant” variety), sown in starter cups on a 50/50 peat soil-pozzolana substrate and grown at 22° C. (12 h)/20° C. (12 h), are treated at the 1-leaf stage (10 cm height) by spraying with the active ingredient prepared as described above. Plants, used as controls, are treated with the mixture of acetone/tween/DMSO/water not containing the active material. After 24 hours, the plants are contaminated by spraying the leaves with an aqueous suspension of Pyrenophora teres spores (12 000 spores per ml). The spores are collected from a 12-day-old culture. […] Grading (% of efficacy) is carried out 12 days after the contamination, in comparison with the control plants.

[9] = method [a]: HPLC/LC-MS on reversed phase at pH 2.7, 0.1% formic acid in water / acetonitrile, gradient 10% to 95% acetonitrile
[10] = method [a]: HPLC/LC-MS on reversed phase at pH 2.7, 0.1% formic acid in water / acetonitrile, linear gradient 10% to 95% acetonitrile
[11] = HPLC on reversed phase columns, method [a]: pH 2.7, 0.1% formic acid in water / acetonitrile, linear gradient 10% to 95% acetonitrile

SMILES | % of efficacy (protection) [1] [%] | % of efficacy (protection) [2] [%] | % of efficacy (protection) [3] [%] | % of efficacy (protection) [4] [%] | log P [5, 9] | % of efficacy (protection) [6] [%] | % of efficacy (protection) [7] [%] | % of efficacy (protection) [8] [%] | log P [5, 10] | log P [5, 11]
C#Cc1cnc2ccc(C3=NOC(OC)(C(=O)NC4CCC4)C3)cc2c1 (racemic) [compound 429] | 71 | 100 | 100 | 89 | 2.54[a] | 83 |  |  |  | 
C#Cc1cnc2ccc(C3=NOC(CC)(C(=O)NCc4cn(CC)nc4C)C3)cc2c1 (racemic) [compound 438] | 97 | 100 |  | 88 | 2.37[a] | 89 | 87 |  |  | 
C#Cc1cnc2ccc(C3=NOC(CC)(C(=O)NCCCOCC)C3)cc2c1 (racemic) [compound 440] |  |  |  |  | 2.73[a] | 89 |  | 75 |  | 
C#Cc1cnc2ccc(C3=NOC(OC)(C(=O)NCc4cn(CC)nc4C)C3)cc2c1 (racemic) [compound 442] | 88 | 97 | 100 | 89 | 2.14[a] | 100 | 94 |  |  | 
C#Cc1cnc2ccc(C3=NOC(CC)(C(=O)NC4CCC4)C3)cc2c1 (racemic) [compound 447] | 100 | 75 | 97 | 89 | 2.94[a] | 75 |  |  |  | 
COC1(C(=O)NC2CC2)CC(c2ccc3ncc(I)cc3c2)=NO1 (racemic) [compound 450] | 91 | 98 | 100 | 89 | 2.48[a] | 98 |  |  |  | 
CC1(C(=O)NCc2ccc3c(c2)CCO3)CC(c2ccc3ncc(Br)cc3c2)=NO1 (stereo not drawn) [compound 122] |  |  |  |  |  |  |  | 86 | 3.13^[a] | 
CCn1cc(CNC(=O)C2(C)CC(c3ccc4ncc(-c5ccccc5)cc4c3)=NO2)c(C)n1 (stereo not drawn) [compound 140] | 96 | 80 |  | 81 |  | 83 |  |  | 2.63^[a] | 
C#Cc1cnc2ccc(C3=NOC(C)(C(=O)NCc4ccccc4)C3)cc2c1 (stereo not drawn) [compound 169] |  | 100 | 100 |  |  |  |  | 79 | 2.86^[a] | 
Cc1nn(C)c(C)c1CNC(=O)C1(C)CC(c2ccc3ncc(Br)cc3c2)=NO1 (stereo not drawn) [compound 177] |  |  |  |  |  |  |  | 86 | 2.13^[a] | 
Cc1c(CNC(=O)C2(C)CC(c3ccc4ncc(Br)cc4c3)=NO2)cnn1C (stereo not drawn) [compound 179] |  |  |  |  |  |  |  | 86 | 2.15^[a] | 
C#Cc1cnc2ccc(C3=NOC(C)(C(=O)NCc4ccc(Cl)cc4)C3)cc2c1 (stereo not drawn) [compound 200] |  |  |  |  |  |  |  | 71 | 3.23^[a] | 
C#Cc1cnc2ccc(C3=NOC(C)(C(=O)NC(C)c4ccccn4)C3)cc2c1 (stereo not drawn) [compound 206] |  | 100 |  |  |  | 94 | 93 | 71 | 1.9^[a] | 
C#Cc1cnc2ccc(C3=NOC(C)(C(=O)NCc4cccc5ccccc45)C3)cc2c1 (stereo not drawn) [compound 225] |  |  |  |  |  |  |  | 79 | 3.46^[a] | 
CCc1cnc2ccc(C3=NOC(C)(C(=O)NCc4cn(CC)nc4C)C3)cc2c1 (stereo not drawn) [compound 256] |  | 100 |  |  |  |  |  | 75 |  | 1.72^[a]
Cc1cnc2ccc(C3=NOC(C)(C(=O)NC(C)C)C3)cc2c1 (stereo not drawn) [compound 260] |  | 98 | 75 |  |  |  | 90 | 75 |  | 1.63^[a]
C#Cc1cnc2ccc(C3=NOC(OC)(C(=O)NC(C)C)C3)cc2c1 (stereo not drawn) [compound 406] |  | 100 |  |  | 2.35[a] | 100 |  | 83 |  | 
COC1(C(=O)NC2CCC2)CC(c2ccc3ncc(Br)cc3c2)=NO1 (stereo not drawn) [compound 414] | 100 | 100 | 100 | 89 | 2.84[a] | 98 |  |  |  | 
COC1C(c2ccc3ncc(Br)cc3c2)=NOC1(C)C(=O)NC(C)C (stereo not drawn) [compound 419] |  |  |  |  | 2.91[a] |  |  | 75 |  | 
C#Cc1cnc2ccc(C3=NOC(OC)(C(=O)NCC4COC(C)(C)O4)C3)cc2c1 (stereo not drawn) [compound 476] | 77 | 97 | 100 | 90 | 2.35[a] | 98 | 85 |  |  | 
COC1(C(=O)NCC(O)CO)CC(c2ccc3ncc(Br)cc3c2)=NO1 (stereo not drawn) [compound 477] | 86 |  |  | 90 | 1.59[a] | 75 | 98 |  |  | 
COC1(C(=O)NC2CCC2)CC(c2ccc3ncc(I)cc3c2)=NO1 (stereo not drawn) [compound 482] | 98 | 100 | 100 | 83 | 2.95[a] | 100 |  |  |  | 
C=C(C)C1(C(=O)NCC2COC(C)(C)O2)CC(c2ccc3ncc(Br)cc3c2)=NO1 (stereo not drawn) [compound 520] |  | 79 |  |  |  |  |  | 88 |  | 3.29[a]
